Source: ChEMBL document CHEMBL3244131, “Synthesis of cephalosporin-4-aldehydes” (1977)
In brackets after ≈: the same amount, converted by molar mass.

Tests used:
Type in all cases: functional
Escherichia coli = test: Antimicrobial activity against Escherichia coli ATCC 25922-1 by threefold dilution agar inclusion method
Klebsiella pneumoniae = test: Antimicrobial activity against Klebsiella pneumoniae ATCC 10031-2 by threefold dilution agar inclusion method
Proteus vulgaris = test: Antimicrobial activity against Proteus vulgaris ATCC 9484 by threefold dilution agar inclusion method
Staphylococcus aureus = test: Antimicrobial activity against Staphylococcus aureus ATCC 6538P by threefold dilution agar inclusion method
Streptococcus pyogenes = test: Antimicrobial activity against Streptococcus pyogenes ATCC 8668 by threefold dilution agar inclusion method

Row | SMILES | MIC (Escherichia coli) | MIC (Klebsiella pneumoniae) | MIC (Proteus vulgaris) | MIC (Staphylococcus aureus) | MIC (Streptococcus pyogenes)
1 | CO/N=C/C1=C(COC(C)=O)CS[C@@H]2[C@H](NC(=O)Cc3cccs3)C(=O)N12 | > 100 µg/mL | > 100 µg/mL | > 100 µg/mL | > 100 µg/mL | > 100 µg/mL
2 | CC(=O)OCC1=C(/C=N/OCC(=O)O)N2C(=O)[C@@H](NC(=O)Cc3cccs3)[C@H]2SC1 | > 100 µg/mL | > 100 µg/mL | > 100 µg/mL | > 100 µg/mL | > 100 µg/mL
3 | CC(=O)OCC1=C(C2OCCO2)N2C(=O)[C@@H](NC(=O)Cc3cccs3)[C@H]2SC1 | > 100 µg/mL | > 100 µg/mL | > 100 µg/mL | > 100 µg/mL | > 100 µg/mL
4 | CC(=O)OCC1=C(C(=O)O)N2C(=O)[C@@H](NC(=O)Cc3cccs3)[C@H]2SC1 [CEPHALOTHIN] | 30 µg/mL (≈ 75.7 µM) | 1 µg/mL (≈ 2.52 µM) | > 100 µg/mL | 0.3 µg/mL (≈ 0.757 µM) | < 0.1 µg/mL

Other lines, results leading:

Row | MIC (Escherichia coli) | MIC (Klebsiella pneumoniae) | MIC (Proteus vulgaris) | MIC (Staphylococcus aureus) | MIC (Streptococcus pyogenes) | SMILES
5 | > 100 µg/mL | > 100 µg/mL | > 100 µg/mL | 30 µg/mL (≈ 78.9 µM) | 30 µg/mL (≈ 78.9 µM) | CC(=O)OCC1=C(C=O)N2C(=O)[C@@H](NC(=O)Cc3cccs3)[C@H]2SC1
6 | > 100 µg/mL | > 100 µg/mL | > 100 µg/mL | > 100 µg/mL | > 100 µg/mL | CC(=O)OCC1=C(/C=N/NC(N)=O)N2C(=O)[C@@H](NC(=O)Cc3cccs3)[C@H]2SC1
7 | > 100 µg/mL | > 100 µg/mL | > 100 µg/mL | > 100 µg/mL | > 100 µg/mL | CC(=O)OCC1=C(/C=N/O)N2C(=O)[C@@H](NC(=O)Cc3cccs3)[C@H]2SC1
8 | > 100 µg/mL | > 100 µg/mL | > 100 µg/mL | > 100 µg/mL | > 100 µg/mL | CC(=O)OCC1=C(/C=C/C(=O)[O-])N2C(=O)[C@@H](NC(=O)Cc3cccs3)[C@H]2SC1.[Na+]
